According to US9527859B2, “Amidopyridine derivative and use thereof” (Mitsubishi Tanabe Pharma Corporation, priority 2012, dated 2016):

Tests used:
[1] = system: type II collagen-induced arthritis in DBA/1J mice; experiment: Effect on type II collagen-induced arthritis in DBA/1J mice; type: in vivo, mouse; settings: oral, once a day for three weeks from booster immunization; significant inhibitory effect on arthritis
Protocol: Effect on Type II Collagen-Induced Arthritis in DBA/1J Mice
An emulsion was prepared by mixing 200 μg of bovine type II collagen (purchased from collagen Gijyutsu Kenshuukai) with Freund's complete adjuvant (Sigma-Aldrich) containing killed Mycobacterium tuberculosis H37Ra, and arthritis was induced by immunization through subcutaneous administration of the emulsion to the tail of 6 to 7 week-old male DBA/1J mouse (Charles River Japan, Inc.), followed by booster immunization three weeks after the first immunization by administration of the same amounts of the emulsion prepared in a similar way. Test compound was suspended or dissolved in 0.5% carboxymethylcellulose (Sigma-Aldrich) and repeatedly administered orally once a day at a dose of 1 to 10 mg/kg body weight using an oral sonde for three weeks from the day of booster immunization. In this model, the symptom of arthritis of the limbs was each evaluated according to the following evaluation criteria of 0 to 4 scores: […], No change; 1, edema in only one joint; 2, edema in two or more joints, or mild edema of the entire limb; 3, severe edema of the entire limb; 4, severe edema of the entire limb and ankylosis and immovability of joint. The score of arthritis of each mouse was expressed as the total of the scores of the limbs (Maximum: 16 points). On the next day of the final administration, soft X-ray photograph of the limbs was taken with soft X-ray equipment (Omic), and the level of joint destruction was evaluated by observation under a microscope. In each finger of the limbs the score of joint destruction in each mouse was judged in the total of scores for each finger of limbs (Maximum: 20) as 0 when no joint destruction was found, and as 1 when one or more destruction was found. The arthritis score and joint destruction score were expressed as the average value and standard error for each group (n=6 to 9). Only a vehicle was administered in a control group, and statistical analysis was performed by Dunnett's multiple comparison test, in which the case was judged as significant when the p value was less than 0.05.

HepG2 cells = experiment: Evaluation of hepatocyte cytotoxicity using HepG2 cells (CellTiter-Glo); type: cell-based, human; settings: for Survival rate (%): cell survival rate
Protocol: Evaluation of Hepatocyte Cytotoxicity Using HepG2 Cells
A culture solution was prepared by adding 10% Fetal Bovine Serum (FBS: treated to be inactivated under the condition of 56° C., 30 minutes, Invitrogen, 10082-147), 0.1 mM Non-Essential Amino Acids (NEAA: Invitrogen, 11140-050), 1 mM sodium pyruvate (PyNa: Invitrogen, 11360-070) to Eagle's MEM medium (Invitrogen, 11875-093) and was used after warming to 37° C. before using.
HepG2 cell line (DS Pharma Biomedical) derived from human hepatoma in logarithmic growth phase were used. The number of cells subjected to subculturing was 1 to 5×10^6 cell/15 mL in a 75 cm^2 cultivation flask, and cells were subcultured about every 1 week depending on the condition of cells. In subculturing, cells were rinsed with D-PBS (−) (invitrogen, 14190-144) (10 mL), then thereto was added 0.25% Trypsin-1 mM EDTA (Invitrogen, 25200-056) (1 mL), and the mixture was treated for 10 minutes (37° C., 5% CO2), then thereto was added culture solution (9 mL), and the mixture was collected and centrifuged (1000 rpm×5 minutes, 4° C.). The number of cells were counted by dyeing with 0.4% trypan blue solution (Invitrogen, 15250-061), and then cells were diluted with culture solution to be a specific number of cells and incubated under the condition of 37° C., 5% CO2.
As to a cell seeding, HepG2 cells which were incubated in a 75 cm^2 flask were rinsed with D-PBS (−) (10 mL), and then thereto was added 0.25% Trypsin-1 mM EDTA (1 mL), and the mixture was treated for 10 minutes (37° C., 5% CO2). Thereto was added additional culture solution (9 mL), and the mixture was collected in a 50 mL centrifuge tube to be centrifuged (1000 rpm×5 minutes, 4° C.). A supernatant was removed, and the residual cells were suspended by additional culture solution and sufficiently single-celled by pipetting. After dyeing with 0.4% trypan blue, the number of cells were counted by using a cell counting chamber, and a suspended cell was prepared in a specified cell density (In case of 24-hour exposure: 1×10^5, in case of 48-hour exposure: 5×10^4 cells/mL). The 100 μL of cell suspension was added per 1 well (n=3, 24 hours: 1×10^4, 48 hours: 5×10^3 cells/100 μL/well) of 96 well Clear bottom black microplate (Corning, 3603), and then the mixture was pre-incubated for about 24 hours under the condition of 37° C., 5% CO2.
Stock solutions of test compounds were prepared in a 200-fold concentration of the desired maximum concentration to be homogenized with optional ultrasonication. These stock solutions were preserved at −20° C. Before using, a stock solution was thawed, and diluted with DMSO to be concentrations of 20 mM to 20 μM (common ratio of 3, 7 concentrations in total), and then it was diluted with culture solution in 100-fold to prepare a culture solution containing test compounds in a 2-fold concentration. Thus, the upper limit of the final concentration of DMSO in culture solution was in principle 0.5% (v/v).
A vehicle control group and a positive control group were set with each measurement plate. Chlorpromazine (Wako Pure Chemical Industries, Ltd., 033-10581) was used as a positive control agent (final concentration 24 hours: 20 μM, 48 hours: 15 μM). 20 mM stock solution was thawed, and then diluted with culture solution, and chlorpromazine-containing culture solution was prepared in 2-fold concentration.
As to the treatment of test compounds, a culture solution (100 μL) containing a test compound or a positive control agent and a culture solution (100 μL) containing vehicle were added to each specified well. A culture solution (200 μL) was added to blank (without cells) well. Thus, total amounts of culture solution of each well were 200 μL, and the final concentration of test compounds was 100 μM to 0.1 μM (common ratio of 3, 7 concentrations in total).
Incubation was carried out under the condition of 37° C., 5% CO2 for 24 or 48 hours. […]

| Compound | Effective Dose (showing arthritis-inhibiting activity) [1] | Cell survival rate (HepG2 cells) | Survival rate (%) (HepG2 cells) |
| --- | --- | --- | --- |
| Cc1c(C(=O)Nc2cnc(N3CCC(O)CC3)c(C3CC3)c2)cnn1-c1ccc(Cl)cc1 [Example 39, 1-(4-chlorophenyl)-N-[5-cyclopropyl-6-(4-hydroxypiperidin-1-yl)pyridin-3-yl]-5-methyl-1H-pyrazole-4-carboxamide] | 3 mg/kg | 65.8% | 107.1% |
| Cc1cc(NC(=O)c2cnn(-c3ccc(Cl)cc3)c2C)cnc1N1CCC(O)CC1 [Example 43, 1-(4-chlorophenyl)-N-[6-(4-hydroxypiperidin-1-yl)-5-methylpyridin-3-yl]-5-methyl-1H-pyrazole-4-carboxamide] |  |  | 117.8% |
| Cc1c(C(=O)Nc2cnc(N3CCC(O)CC3)c(C#N)c2)cnn1-c1ccc(Cl)cc1 [Example 44, 1-(4-chlorophenyl)-N-[5-cyano-6-(4-hydroxypiperidin-1-yl)pyridin-3-yl]-5-methyl-1H-pyrazole-4-carboxamide] | 3 mg/kg |  | 95.8% |
| Cc1c(C(=O)Nc2cnc(N3CCC(O)CC3)c(C#N)c2)cnn1-c1ccc(C(F)(F)F)cc1 [Example 45, N-[5-cyano-6-(4-hydroxypiperidin-1-yl)pyridin-3-yl]-5-methyl-1-[4-(trifluoromethyl)phenyl]-1H-pyrazole-4-carboxamide] | 10 mg/kg |  | 92.5% |
| Cc1cc(NC(=O)c2cnn(-c3ccc(C(F)(F)F)cc3)c2C)cnc1N1CCC(C(C)(C)F)CC1 [Example 47, N-{6-[4-(1-fluoro-1-methylethyl)piperidin-1-yl]-5-methylpyridin-3-yl}-5-methyl-1-[4-(trifluoromethyl)phenyl]-1H-pyrazole-4-carboxamide] |  |  | 99.8% |
| Cc1cc(NC(=O)c2cnn(-c3ccc(C(F)(F)F)cn3)c2C)cnc1N1CCC(C(C)(C)F)CC1 [Example 49, N-{6-[4-(1-fluoro-1-methylethyl)piperidin-1-yl]-5-methylpyridin-3-yl}-5-methyl-1-[5-(trifluoromethyl)pyridin-2-yl]-1H-pyrazole-4-carboxamide] |  |  | 102.3% |
